Source: PubChem BioAssay (NCI)
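48-hour exposure; five concentrations; linearly interpolated endpoints. Here, GI50 denotes the concentration required for 50% inhibition of growth. TGI is the concentration that stops growth completely.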

Experiments:
Assay in all cases: inhibition of tumour cell growth, NCI panel, 48 h
ACHN renal = system: ACHN renal
DLD-1 colon = system: DLD-1 colon
DMS 114 small cell lung = system: DMS 114 small cell lung
NCI-H23 lung = system: NCI-H23 lung
NCI-H522 lung = system: NCI-H522 lung
SF-295 CNS = system: SF-295 CNS
SK-MEL-28 melanoma = system: SK-MEL-28 melanoma
SK-MEL-5 melanoma = system: SK-MEL-5 melanoma
SNB-19 CNS = system: SNB-19 CNS
NCI/ADR-RES ovarian = system: NCI/ADR-RES ovarian

## CC(C)=CC(=O)N(C)C1C2CN3CCC(O2)C13 (centres undefined)
ACHN renal
  TGI: > 100 µM
DLD-1 colon
  TGI: > 100 µM
DMS 114 small cell lung
  TGI: > 100 µM
NCI-H23 lung
  TGI: > 100 µM
NCI-H522 lung
  TGI: > 100 µM
SF-295 CNS
  TGI: > 100 µM
SK-MEL-28 melanoma
  TGI: > 100 µM
SK-MEL-5 melanoma
  TGI: > 100 µM
SNB-19 CNS
  TGI: > 100 µM

## CCCCCCCCCCCCC(Br)C(=O)NCC(N)=O (centres undefined)
ACHN renal
  TGI: 29.2 µM
DLD-1 colon
  TGI: 29.8 µM
DMS 114 small cell lung
  TGI: 15.2 µM
NCI-H23 lung
  TGI: 14.7 µM
NCI-H522 lung
  TGI: 5.22 µM
SF-295 CNS
  TGI: 29.5 µM
SK-MEL-28 melanoma
  TGI: 29.2 µM
SK-MEL-5 melanoma
  TGI: 18.4 µM
SNB-19 CNS
  TGI: 24.3 µM

## N#CC(C#N)c1ccc(C(=O)N2CCC[C@H]2CO)cc1
ACHN renal
  TGI: > 100 µM
DLD-1 colon
  TGI: > 100 µM
DMS 114 small cell lung
  TGI: > 100 µM
NCI-H23 lung
  TGI: > 100 µM
NCI-H522 lung
  TGI: > 100 µM
SF-295 CNS
  TGI: > 100 µM
SK-MEL-28 melanoma
  TGI: > 100 µM
SK-MEL-5 melanoma
  TGI: > 100 µM
SNB-19 CNS
  TGI: > 100 µM

## COCCNC(=O)C1C(=O)C(=O)N(CCOC)C1=O (centres undefined)
ACHN renal
  TGI: > 100 µM
DLD-1 colon
  TGI: > 100 µM
DMS 114 small cell lung
  TGI: > 100 µM
NCI-H23 lung
  TGI: > 100 µM
NCI-H522 lung
  TGI: > 100 µM
SF-295 CNS
  TGI: > 100 µM
SK-MEL-28 melanoma
  TGI: > 100 µM
SK-MEL-5 melanoma
  TGI: > 100 µM
SNB-19 CNS
  TGI: > 100 µM

## NC(=O)NNC(=O)NC12CC3CC(CC(C3)C1)C2
ACHN renal
  TGI: > 100 µM
DLD-1 colon
  TGI: > 100 µM
DMS 114 small cell lung
  TGI: > 100 µM
NCI-H23 lung
  TGI: > 100 µM
NCI-H522 lung
  TGI: > 100 µM
SF-295 CNS
  TGI: > 100 µM
SK-MEL-28 melanoma
  TGI: > 100 µM
SK-MEL-5 melanoma
  TGI: > 100 µM
SNB-19 CNS
  TGI: > 100 µM

## Cc1ccc(C)c(N2C(=O)C(=O)C(c3nc4ccccc4s3)/C(=N/NC(=O)NN)C2=O)c1 (centres undefined)
ACHN renal
  TGI: > 100 µM
DLD-1 colon
  TGI: > 100 µM
DMS 114 small cell lung
  TGI: > 100 µM
NCI-H23 lung
  TGI: > 100 µM
NCI-H522 lung
  TGI: > 100 µM
SF-295 CNS
  TGI: > 100 µM
SK-MEL-28 melanoma
  TGI: > 100 µM
SK-MEL-5 melanoma
  TGI: > 100 µM
SNB-19 CNS
  TGI: > 100 µM

## N#CC(c1ccccn1)c1nc2ccccc2[nH]1 (centres undefined)
ACHN renal
  TGI: > 100 µM
DLD-1 colon
  TGI: > 100 µM
DMS 114 small cell lung
  TGI: > 100 µM
NCI-H23 lung
  TGI: > 100 µM
NCI-H522 lung
  TGI: > 100 µM
SF-295 CNS
  TGI: > 100 µM
SK-MEL-28 melanoma
  TGI: > 100 µM
SK-MEL-5 melanoma
  TGI: > 100 µM
SNB-19 CNS
  TGI: > 100 µM

## C[CH2][Sn]([CH2]C)([O]C(=O)c1ccccc1OC)[O][Sn]([CH2]C)([CH2]C)[O]C(=O)c1ccccc1OC
ACHN renal
  GI50: > 100 µM
  TGI: > 100 µM
DLD-1 colon
  GI50: 50.2 µM
  TGI: > 100 µM
DMS 114 small cell lung
  GI50: 30 µM
  TGI: > 100 µM
NCI-H23 lung
  GI50: > 100 µM
  TGI: > 100 µM
NCI-H522 lung
  GI50: 3.02 µM
  TGI: 14.7 µM
SF-295 CNS
  GI50: > 100 µM
  TGI: > 100 µM
SK-MEL-28 melanoma
  GI50: > 100 µM
  TGI: > 100 µM
SK-MEL-5 melanoma
  GI50: > 100 µM
  TGI: > 100 µM
SNB-19 CNS
  GI50: > 100 µM
  TGI: > 100 µM

## Cc1ccc(NC(=O)CC2C(=O)Nc3ccccc3S2(=O)=O)c(C)c1 (centres undefined)
ACHN renal
  TGI: 39.1 µM
DLD-1 colon
  TGI: 43.1 µM
DMS 114 small cell lung
  TGI: 39.2 µM
NCI-H23 lung
  TGI: 37.2 µM
NCI-H522 lung
  TGI: 23.6 µM
SF-295 CNS
  TGI: 50.2 µM
SK-MEL-28 melanoma
  TGI: 41.1 µM
SK-MEL-5 melanoma
  TGI: 19.5 µM
SNB-19 CNS
  TGI: 32.6 µM

## C=CNC(=O)NC(=O)CSc1nnc(-c2ccccc2NC(=O)C(F)(F)F)c(=O)[nH]1
DLD-1 colon
  TGI: 22.7 µM
DMS 114 small cell lung
  TGI: 43.1 µM
NCI-H23 lung
  TGI: > 100 µM
NCI-H522 lung
  TGI: > 100 µM
SF-295 CNS
  TGI: > 100 µM
SK-MEL-28 melanoma
  TGI: > 100 µM
SK-MEL-5 melanoma
  TGI: 2.06 µM
SNB-19 CNS
  TGI: > 100 µM

## NC(=O)c1csc(C2OC(COP(=O)(O)CP(=O)(O)OCC3OC(n4cnc5c(N)ncnc54)C(O)C3O)C(O)C2O)n1 (centres undefined)
ACHN renal
  TGI: > 100 µM
DLD-1 colon
  TGI: > 100 µM
DMS 114 small cell lung
  TGI: > 100 µM
NCI-H23 lung
  TGI: > 100 µM
NCI-H522 lung
  TGI: > 100 µM
SF-295 CNS
  TGI: > 100 µM
SK-MEL-28 melanoma
  TGI: > 100 µM
SK-MEL-5 melanoma
  TGI: > 100 µM
SNB-19 CNS
  TGI: > 100 µM

## O=C(O)/C=C/c1nc2ccccc2c(=O)o1
ACHN renal
  TGI: > 100 µM
DLD-1 colon
  TGI: > 100 µM
DMS 114 small cell lung
  TGI: > 100 µM
NCI-H23 lung
  TGI: > 100 µM
NCI-H522 lung
  TGI: > 100 µM
SF-295 CNS
  TGI: > 100 µM
SK-MEL-28 melanoma
  TGI: > 100 µM
SK-MEL-5 melanoma
  TGI: > 100 µM
SNB-19 CNS
  TGI: > 100 µM

## COC1C(N)C(OC2C(Oc3cccc4c(O)c5c(=O)oc6ccc(C)c7c(=O)oc(c34)c5c67)OC(C)C(O)C2(C)O)OC(C)C1O (centres undefined)
ACHN renal
  TGI: 1.5 µM
DLD-1 colon
  TGI: 0.726 µM
DMS 114 small cell lung
  TGI: 0.229 µM
NCI-H23 lung
  TGI: 0.249 µM
NCI-H522 lung
  TGI: 0.181 µM
NCI/ADR-RES ovarian
  TGI: 12.1 µM
SF-295 CNS
  TGI: 1.21 µM
SK-MEL-28 melanoma
  TGI: 0.34 µM
SK-MEL-5 melanoma
  TGI: 0.265 µM
SNB-19 CNS
  TGI: 0.469 µM

## O=S(=O)(c1cccc(N=C=S)c1)c1cccc(N=C=S)c1
ACHN renal
  TGI: 34.5 µM
DLD-1 colon
  TGI: 40.7 µM
DMS 114 small cell lung
  TGI: 29.6 µM
NCI-H23 lung
  TGI: 32.9 µM
NCI-H522 lung
  TGI: 32.8 µM
SF-295 CNS
  TGI: 39.4 µM
SK-MEL-28 melanoma
  TGI: 33.6 µM
SK-MEL-5 melanoma
  TGI: 36.3 µM
SNB-19 CNS
  TGI: > 100 µM

## C[N+](C)(C)CC1CCCC1=O (centres undefined)
ACHN renal
  TGI: 9.94 µM
DLD-1 colon
  TGI: 3.15 µM
DMS 114 small cell lung
  TGI: 8.31 µM
NCI-H23 lung
  TGI: 9.67 µM
NCI-H522 lung
  TGI: 0.0171 µM
NCI/ADR-RES ovarian
  TGI: 4.05 µM
SF-295 CNS
  TGI: 36.4 µM
SK-MEL-28 melanoma
  TGI: 3.72 µM
SK-MEL-5 melanoma
  TGI: 12.5 µM
SNB-19 CNS
  TGI: 50.8 µM

## COCOCC/C=C/C=O
ACHN renal
  TGI: > 100 µM
DLD-1 colon
  TGI: > 100 µM
DMS 114 small cell lung
  TGI: > 100 µM
NCI-H23 lung
  TGI: > 100 µM
NCI-H522 lung
  TGI: > 100 µM
SF-295 CNS
  TGI: > 100 µM
SK-MEL-28 melanoma
  TGI: > 100 µM
SK-MEL-5 melanoma
  TGI: > 100 µM
SNB-19 CNS
  TGI: > 100 µM
